From US11512079B2, “Heterocycle substituted pyridine derivative antifungal agents” (Amplyx Pharmaceuticals, Inc., priority 2017, dated 2022) come the findings set out here.

Converted amounts (≈) assume the structure as drawn.

What all share (type): cell-based
One experiment has as its system Cryptococcus gattii. Kind of experiment: In vitro antifungal assay (Example IX), microdilution broth, MIC. The conditions noted are these: minimum inhibitory concentration (≥50% inhibition), 35° C., 72 h (Cryptococcus), RPMI1640. The method, boiled down:
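MIC was determined from OD600 after 72 h at 35 °C for Cryptococcus, in RPMI1640 inoculated at 2.5×10^3 cells/mL. Compounds were tested as a 2-fold series from 2 to 0.0019 μg/mL final, added from DMSO intermediates at a 100-fold dilution.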
A general note: Broth dilution looks for growth in wells or tubes with falling amounts of substance.

Experiment [1] relates to Rhizomucor pusillus 46342. Kind of experiment: In vitro antifungal assay (Example IX), microdilution broth, MEC. As to conditions: minimum effective concentration (shortening of hyphae), 35° C., 40-48 h, RPMI1640. In short, it runs like this: (§1)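 Read-out is the minimum effective concentration: lowest compound level causing shorter hyphae than in DMSO controls, echinocandin-style. Broth microdilution used conidia or spores harvested from agar plates, cleared of mycelium and clumps, at a final 1-2×10^4 spores/mL in RPMI1640.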

The subject of experiment [2] is Aspergillus fumigatus MYA3626. The experiment is described as above. The conditions noted are these: minimum effective concentration (shortening of hyphae), 35° C., 40-48 h, RPMI1640. In short, it runs like this:
as §1

The test system of the next experiment is Candida albicans 90028. As to the kind of experiment: In vitro antifungal assay (Example IX), microdilution broth, MIC. The conditions noted are these: minimum inhibitory concentration (≥50% inhibition), 35° C., 40-48 h, RPMI1640. In short, it runs like this:
(§2)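 Yeast inocula (2.5×10^3 cells/mL, RPMI1640) were exposed to twofold compound series reaching 2-0.0019 μg/mL final, per CLSI yeast methodology. Incubation at 35° C. ran 40-48 h for Candida albicans 90028 and 72 h for Cryptococcus neoformans H99. MIC endpoints were confirmed by absorbance at 600 nm.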

The subject of experiment [3] is Cryptococcus neoformans H99. The experiment is described as above. The conditions noted are these: minimum inhibitory concentration (≥50% inhibition), 35° C., 72 h, RPMI1640. The method, boiled down: as §2

On to `Nc1ncccc1-c1cc(Cc2ccc(OCc3cscn3)nc2)no1` [compound 41, 3-(3-((6-(thiazol-4-ylmethoxy)pyridin-3-yl)methyl)isoxazol-5-yl)pyridin-2-amine], for which the MIC (in the experiment on Cryptococcus gattii; with Candida albicans 90028; in experiment [3]) was 0.01 to 0.1 µg/mL (≈ 0.0274 to 0.274 µM) in each case. Besides, the minimal effective concentration (in general, the lowest level tested that produced the effect sought) was 0.1 to 1 µg/mL in experiment [1] and 0.01 to 0.1 µg/mL in experiment [2].
As to `Nc1ncccc1-c1cc(Cc2ccc(OCc3nccs3)nc2)no1` [compound 42, 3-(3-((6-(thiazol-2-ylmethoxy)pyridin-3-yl)methyl)isoxazol-5-yl)pyridin-2-amine], the MIC (in the experiment with Cryptococcus gattii; against Candida albicans 90028; in experiment [3]) was 0.01 to 0.1 µg/mL (≈ 0.0274 to 0.274 µM) each time. Moreover, the minimal effective concentration in experiment [1] is 0.1 to 1 µg/mL; in experiment [2] it was 0.01 to 0.1 µg/mL.
Consider `Nc1ncccc1-c1cc(Cc2ccc(OCC3CC3)nc2)no1` [compound 43, 3-(3-((6-(cyclopropylmethoxy)pyridin-3-yl)methyl)isoxazol-5-yl)pyridin-2-amine], for which the MIC – broadly, the lowest concentration found to suppress growth – with Cryptococcus gattii was in the range of 0.01 to 0.1 µg/mL (≈ 0.031 to 0.31 µM); in the experiment on Candida albicans 90028 it was 0.1 to 1 µg/mL (≈ 0.31 to 3.1 µM); in experiment [3], 0.01 to 0.1 µg/mL (≈ 0.031 to 0.31 µM). The minimal effective concentration in experiment [1] was in the range of 0.1 to 1 µg/mL; in experiment [2] it was 0.01 to 0.1 µg/mL.
Regarding `Nc1ncccc1-c1cc(Cc2ccc(OCc3ncccn3)nc2)no1` [compound 46, 3-(3-((6-(pyrimidin-2-ylmethoxy)pyridin-3-yl)methyl)isoxazol-5-yl)pyridin-2-amine], the MIC (against Cryptococcus gattii; against Candida albicans 90028; in experiment [3]) was 0.1 to 1 µg/mL (≈ 0.277 to 2.77 µM) in each case. Also, the figures for the minimal effective concentration in experiment [1] and in experiment [2] were > 1 µg/mL and 0.1 to 1 µg/mL, respectively.
As to `Nc1ncccc1-c1cc(Cc2ccc(OCc3cnccn3)nc2)no1` [compound 47, 3-(3-((6-(pyrazin-2-ylmethoxy)pyridin-3-yl)methyl)isoxazol-5-yl)pyridin-2-amine], the MIC lay within 0.1 to 1 µg/mL (≈ 0.277 to 2.77 µM) in the experiment on Cryptococcus gattii, 0.01 to 0.1 µg/mL (≈ 0.0277 to 0.277 µM) against Candida albicans 90028 and 0.1 to 1 µg/mL (≈ 0.277 to 2.77 µM) in experiment [3]. In addition, the minimal effective concentration in experiment [1] and in experiment [2] was 0.1 to 1 µg/mL in each case.
With `Nc1ncccc1-c1cc(Cc2ccc(OCc3ccoc3)nc2)no1` [compound 48, 3-(3-((6-(furan-3-ylmethoxy)pyridin-3-yl)methyl)isoxazol-5-yl)pyridin-2-amine], the MIC (with Cryptococcus gattii; against Candida albicans 90028; in experiment [3]) was 0.01 to 0.1 µg/mL (≈ 0.0287 to 0.287 µM) each time. In addition, the minimal effective concentration in experiment [1] lay within 0.1 to 1 µg/mL; in experiment [2] it was 0.01 to 0.1 µg/mL.
Turning to `Cc1nc(COc2ccc(Cc3cc(-c4cccnc4N)on3)cn2)cs1` [compound 50, 3-(3-((6-((2-methylthiazol-4-yl)methoxy)pyridin-3-yl)methyl)isoxazol-5-yl)pyridin-2-amine], the MIC (in the experiment on Cryptococcus gattii; against Candida albicans 90028; in experiment [3]) was 0.1 to 1 µg/mL (≈ 0.264 to 2.64 µM) each time. In addition, the minimal effective concentration is > 1 µg/mL in experiment [1] and 0.1 to 1 µg/mL in experiment [2].
As for `Nc1ncccc1-c1cc(Cc2ccc(OCc3ccc(F)cn3)nc2)no1` [compound 51, 3-(3-((6-((5-fluoropyridin-2-yl)methoxy)pyridin-3-yl)methyl)isoxazol-5-yl)pyridin-2-amine], the MIC (with Cryptococcus gattii; in the experiment with Candida albicans 90028; in experiment [3]) was 0.1 to 1 µg/mL (≈ 0.265 to 2.65 µM) each time. For the same compound, the minimal effective concentration in experiment [1] lay in the range of 0.1 to 1 µg/mL; in experiment [2], 0.01 to 0.1 µg/mL.
Consider `Nc1ncccc1-c1cc(Cc2ccc(OCc3ncco3)nc2)no1` [compound 53, 3-(3-((6-(oxazol-2-ylmethoxy)pyridin-3-yl)methyl)isoxazol-5-yl)pyridin-2-amine], for which the MIC (against Cryptococcus gattii; against Candida albicans 90028; in experiment [3]) was 0.1 to 1 µg/mL (≈ 0.286 to 2.86 µM) each time. For the same compound, the minimal effective concentration in experiment [1] and in experiment [2] was 0.1 to 1 µg/mL throughout.
Regarding `Nc1ncccc1-c1cc(Cc2ccc(OCc3ccncc3F)nc2)no1` [compound 54, 3-(3-((6-((3-fluoropyridin-4-yl)methoxy)pyridin-3-yl)methyl)isoxazol-5-yl)pyridin-2-amine], the MIC with Cryptococcus gattii was ≤ 0.01 µg/mL; in the experiment with Candida albicans 90028, 0.01 to 0.1 µg/mL (≈ 0.0265 to 0.265 µM); in experiment [3] it was 0.01 to 0.1 µg/mL (≈ 0.0265 to 0.265 µM). Also, the minimal effective concentration in experiment [1] is > 1 µg/mL; in experiment [2], 0.01 to 0.1 µg/mL.
Regarding `CC(Oc1ccc(Cc2cc(-c3cccnc3N)on2)cn1)c1ccccn1` (centres unmarked) [compound 55, 3-(3-((6-(1-(pyridin-2-yl)ethoxy)pyridin-3-yl)methyl)isoxazol-5-yl)pyridin-2-amine], the MIC (against Cryptococcus gattii; against Candida albicans 90028; in experiment [3]) was 0.1 to 1 µg/mL (≈ 0.268 to 2.68 µM) each time. Besides, the figures for the minimal effective concentration in experiment [1] and in experiment [2] were > 1 µg/mL and 0.1 to 1 µg/mL, respectively.
For the compound `Nc1ncccc1-c1cc(Cc2ccc(OCC3CCC3)nc2)no1` [compound 57, 3-(3-((6-(cyclobutylmethoxy)pyridin-3-yl)methyl)isoxazol-5-yl)pyridin-2-amine], the MIC is ≤ 0.01 µg/mL in the experiment on Cryptococcus gattii, 0.01 to 0.1 µg/mL (≈ 0.0297 to 0.297 µM) with Candida albicans 90028 and 0.01 to 0.1 µg/mL (≈ 0.0297 to 0.297 µM) in experiment [3]. Moreover, the minimal effective concentration in experiment [1] was 0.1 to 1 µg/mL; in experiment [2], 0.01 to 0.1 µg/mL.
As for `Nc1ncccc1-c1cc(Cc2ccc(Nc3ccccc3)nc2)no1` [compound 58, 5-((5-(2-aminopyridin-3-yl)isoxazol-3-yl)methyl)-N-phenylpyridin-2-amine], the MIC lay in the range of 0.01 to 0.1 µg/mL (≈ 0.0291 to 0.291 µM) against Cryptococcus gattii, 0.01 to 0.1 µg/mL (≈ 0.0291 to 0.291 µM) in the experiment on Candida albicans 90028 and 0.1 to 1 µg/mL (≈ 0.291 to 2.91 µM) in experiment [3]. In addition, the minimal effective concentration in experiment [1] and in experiment [2] was 0.1 to 1 µg/mL each time.
In the case of `Nc1ncccc1-c1cc(Cc2ccc(Nc3ccccc3F)nc2)no1` [compound 60, 5-((5-(2-aminopyridin-3-yl)isoxazol-3-yl)methyl)-N-(2-fluorophenyl)pyridin-2-amine], the MIC (in the experiment on Cryptococcus gattii; against Candida albicans 90028; in experiment [3]) was 0.01 to 0.1 µg/mL (≈ 0.0277 to 0.277 µM) in each case. Moreover, the minimal effective concentration in experiment [1] is > 1 µg/mL; in experiment [2], 0.1 to 1 µg/mL.
Consider `Nc1ncccc1-c1cc(Cc2ccc(SCc3ccccc3)nc2)no1` [compound 61, 3-(3-((6-(benzylthio)pyridin-3-yl)methyl)isoxazol-5-yl)pyridin-2-amine], for which the MIC lay in the range of 0.01 to 0.1 µg/mL (≈ 0.0267 to 0.267 µM) against Cryptococcus gattii, 0.01 to 0.1 µg/mL (≈ 0.0267 to 0.267 µM) in the experiment with Candida albicans 90028 and 0.1 to 1 µg/mL (≈ 0.267 to 2.67 µM) in experiment [3]. The minimal effective concentration in experiment [1] is > 1 µg/mL; in experiment [2], 0.01 to 0.1 µg/mL.
As to `c1ccc(OCc2ccc(Cn3cc(-c4cccnc4)cn3)cc2)nc1` [compound 62, 2-((4-((4-(pyridin-3-yl)-1H-pyrazol-1-yl)methyl)benzyl)oxy)pyridine], the MIC in the experiment on Cryptococcus gattii is > 1 µg/mL; against Candida albicans 90028, 0.1 to 1 µg/mL (≈ 0.292 to 2.92 µM); in experiment [3], > 1 µg/mL. Further, the minimal effective concentration in experiment [1] is > 1 µg/mL; in experiment [2], 0.01 to 0.1 µg/mL.
Consider `c1ccc(COc2ccc(Cn3cc(-c4cccnc4)cn3)cn2)cc1` [compound 65, 2-(benzyloxy)-5-((4-(pyridin-3-yl)-1H-pyrazol-1-yl)methyl)pyridine], for which the MIC (in the experiment with Cryptococcus gattii; against Candida albicans 90028; in experiment [3]) was 0.1 to 1 µg/mL (≈ 0.292 to 2.92 µM) in each case. Besides, the minimal effective concentration was > 1 µg/mL in experiment [1] and 0.01 to 0.1 µg/mL in experiment [2].
`Nc1ncccc1-c1cc(Cc2ccc(Cc3cccnc3F)cc2)no1` [compound 69, 3-(3-(4-((2-fluoropyridin-3-yl)methyl)benzyl)isoxazol-5-yl)pyridin-2-amine]: the MIC (in the experiment with Cryptococcus gattii; against Candida albicans 90028; in experiment [3]) was 0.01 to 0.1 µg/mL (≈ 0.0277 to 0.277 µM) throughout. In addition, the minimal effective concentration in experiment [1] lay in the range of 0.1 to 1 µg/mL; in experiment [2], 0.01 to 0.1 µg/mL.
With `Nc1ncccc1-c1cc(Cc2ccc(CNc3ccnc(F)c3)cc2)no1` [compound 70, 3-(3-(4-(((2-fluoropyridin-4-yl)amino)methyl)benzyl)isoxazol-5-yl)pyridin-2-amine], the MIC (in the experiment on Cryptococcus gattii; in the experiment with Candida albicans 90028; in experiment [3]) was 0.1 to 1 µg/mL (≈ 0.266 to 2.66 µM) each time. Besides, the figures for the minimal effective concentration in experiment [1] and in experiment [2] were > 1 µg/mL and 0.01 to 0.1 µg/mL, respectively.
For the compound `Nc1ncccc1-c1cc(Cc2ccc(Nc3cccc(F)c3F)nc2)no1` [compound 72, 5-((5-(2-aminopyridin-3-yl)isoxazol-3-yl)methyl)-N-(2,3-difluorophenyl)pyridin-2-amine], the MIC in the experiment on Cryptococcus gattii lay within 0.1 to 1 µg/mL (≈ 0.264 to 2.64 µM); in the experiment on Candida albicans 90028, 0.01 to 0.1 µg/mL (≈ 0.0264 to 0.264 µM); in experiment [3], 0.01 to 0.1 µg/mL (≈ 0.0264 to 0.264 µM). Besides, the minimal effective concentration in experiment [1] and in experiment [2] was 0.1 to 1 µg/mL each time.
For the compound `Nc1ncccc1-c1cc(Cc2ccc(OCc3ccco3)nc2)no1` [compound 73, 3-(3-((6-(furan-2-ylmethoxy)pyridin-3-yl)methyl)isoxazol-5-yl)pyridin-2-amine], the MIC against Cryptococcus gattii was > 1 µg/mL; against Candida albicans 90028, 0.01 to 0.1 µg/mL (≈ 0.0287 to 0.287 µM); in experiment [3] it was > 1 µg/mL. The minimal effective concentration in experiment [1] is > 1 µg/mL; in experiment [2], 0.1 to 1 µg/mL.
`Nc1ncccc1-c1cc(Cc2ccc(NCc3ccccc3F)nc2)no1` [compound 74, 5-((5-(2-aminopyridin-3-yl)isoxazol-3-yl)methyl)-N-(2-fluorobenzyl)pyridin-2-amine]: the MIC (with Cryptococcus gattii; against Candida albicans 90028; in experiment [3]) was 0.01 to 0.1 µg/mL (≈ 0.0266 to 0.266 µM) throughout. Moreover, the figures for the minimal effective concentration in experiment [1] and in experiment [2] were > 1 µg/mL and 0.1 to 1 µg/mL, respectively.
